Where a name gives a salt, the structure may show the parent alone. Read-outs that look alike come from different tables or passages of the source.
Key:
[1] = cited from earlier work
[2] = Dissolution of vilazodone hydrochloride in methanol aqueous solution; format: physicochemical; conditions: 30 mg
Procedure: (§1) 30 mg of vilazodone hydrochloride solid powder was put into a 10 ml EP tube 3 ml of methanol aqueous solution of different concentrations was added to each tube separately, and the tubes were sonicated in a water bath for 30 minutes. The dissolution of the powders was observed; if the powder was dissolved quickly, a small amount of powder was continued to add to increase the concentration of the sample and was dissolved ultrasonically; finally, the solution samples were placed at room temperature for 24 hours to observe whether there was precipitation.

[3] = Dissolution of vilazodone hydrochloride in acetone aqueous solution; format: physicochemical; conditions: 10 mg
Procedure: as §1, with “10 mg” for “30 mg”, “a 4” for “a 10”, “EP tube. 1” for “EP tube 3”, “of acetone” for “of methanol”, “the powder” for “the powders”

[4] = Dissolution of vilazodone hydrochloride in ethanol aqueous solution; format: physicochemical; conditions: 10 mg
Procedure: (§2) 10 mg of vilazodone hydrochloride solid powder was put into a 4 ml EP tube. 1 ml of ethanol aqueous solution of different concentrations was added to each tube separately, and the tubes were sonicated in a water bath for 30 minutes. The dissolution of the powder was observed; after the samples were placed at room temperature for 24 h, the appearance of the samples was observed and whether there was precipitation was noted.

[5] = Dissolution of vilazodone in different organic solvents; format: physicochemical; conditions: 10 mg/ml, sonicated 30 min, room temperature 24 h
Procedure: as §2, with “dichloromethane, methanol, ethanol, acetone and ethyl acetate” for “ethanol aqueous solution of different concentrations”

Compound: N#Cc1ccc2[nH]cc(CCCCN3CCN(c4ccc5oc(C(N)=O)cc5c4)CC3)c2c1 [vilazodone hydrochloride, 5-{4-[4-(5-cyano-3-indole)-butyl]-1-piperazinyl}-coumarone-2-carboxamide]
- solubility ([1]; environment with pH 3.1): a certain solubility
- solubility ([1]; gastric juice (pH 1.2) and intestinal juice (pH 4.5 to 6.8)): poor solubility
- Result (dissolution) ([2]; Methanol 0.3 ml + Water 2.7 ml): Insoluble, a lot of precipitation
- Result (dissolution) ([2]; Methanol 0.6 ml + Water 2.4 ml): Insoluble, a lot of precipitation
- Result (dissolution) ([2]; Methanol 0.9 ml + Water 2.1 ml): Insoluble, a lot of precipitation
- Result (dissolution) ([2]; Methanol 1.2 ml + Water 1.8 ml): Insoluble, a lot of precipitation
- Phenomenon (dissolution) ([3]; Acetone 0.1 ml + Water 0.9 ml): Insoluble, a lot of precipitation
- Phenomenon (dissolution) ([3]; Acetone 0.2 ml + Water 0.8 ml): Insoluble, a lot of precipitation
- Phenomenon (dissolution) ([3]; Acetone 0.3 ml + Water 0.7 ml): Insoluble, a lot of precipitation
- Phenomenon (dissolution) ([3]; Acetone 0.9 ml + Water 0.1 ml): Insoluble, a lot of precipitation
- Phenomenon (dissolution) ([4]; Ethanol 0.1 ml + Water 0.9 ml): Insoluble, a lot of precipitation
- Phenomenon (dissolution) ([4]; Ethanol 0.2 ml + Water 0.8 ml): Insoluble, a lot of precipitation
- Phenomenon (dissolution) ([4]; Ethanol 0.3 ml + Water 0.7 ml): Insoluble, a lot of precipitation
- Phenomenon (dissolution) ([4]; Ethanol 0.4 ml + Water 0.6 ml): Dissolved, precipitate after 1 day
- Phenomenon (dissolution) ([4]; Ethanol 0.6 ml + Water 0.4 ml): Dissolved, precipitate after 1 day
- Phenomenon (dissolution) ([4]; Ethanol 0.8 ml + Water 0.2 ml): Insoluble, a lot of precipitation
- Phenomenon (dissolution) ([4]; Ethanol 0.9 ml + Water 0.1 ml): Insoluble, a lot of precipitation
- Phenomenon (dissolution) ([5]; Acetone): Insoluble, a little of precipitation
- Phenomenon (dissolution) ([5]; Dichloromethane): Insoluble, a lot of precipitation
- Phenomenon (dissolution) ([5]; Ethanol): Insoluble, a little of precipitation
- Phenomenon (dissolution) ([5]; Ethyl acetate): Insoluble, a lot of precipitation
- Phenomenon (dissolution) ([5]; Methanol): Insoluble, a little of precipitation

Reference: US20220071993A1, “A VILAZODONE SOLID DISPERSION AND PREPARATION METHOD THEREOF” (SUNSHINE LAKE PHARMA CO., LTD., priority 2018, published 2022)
